Experimental data taken from ChEMBL document CHEMBL1148710, “Alpha2-adrenoreceptors profile modulation. 3.1 (R)-(+)-m-nitrobiphenyline, a new efficient and alpha2C-subtype selective agonist” (J Med Chem, 2007).
Active and inactive are the calls of the source. No cut-off for these calls is given here.

Each compound was assayed against T1, Alpha-2B adrenergic receptor (Homo sapiens) (UniProt P18089) (assay: Intrinsic activity at human adrenergic alpha2B receptor expressed in CHO cells assessed as forskolin-induced cAMP accumulation relative to (-)- noradrenaline). Settings: not given.
T1 sequence (whole entry): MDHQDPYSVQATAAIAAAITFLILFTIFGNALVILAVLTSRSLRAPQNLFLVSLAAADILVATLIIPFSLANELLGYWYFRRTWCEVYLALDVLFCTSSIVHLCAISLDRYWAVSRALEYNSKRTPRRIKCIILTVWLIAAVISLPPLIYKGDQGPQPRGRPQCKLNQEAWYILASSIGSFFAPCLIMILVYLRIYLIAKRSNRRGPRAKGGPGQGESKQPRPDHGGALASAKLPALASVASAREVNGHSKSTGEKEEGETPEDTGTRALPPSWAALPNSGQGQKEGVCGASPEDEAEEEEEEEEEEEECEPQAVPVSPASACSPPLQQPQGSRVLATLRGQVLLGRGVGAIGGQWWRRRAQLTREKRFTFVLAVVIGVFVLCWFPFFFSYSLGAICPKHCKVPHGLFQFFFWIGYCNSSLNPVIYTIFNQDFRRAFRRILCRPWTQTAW
Format: functional, cell-based
For `C[C@@H](Oc1ccccc1-c1ccccc1)C1=NCCN1`, the Intrinsic activity was 0.4.
For `CC(Oc1ccccc1-c1cccc([N+](=O)[O-])c1)C1=NCCN1` (racemic), the Intrinsic activity was less than 0.3.
`CC(Oc1ccccc1-c1cccc(O)c1)C1=NCCN1` (racemic) gave an Intrinsic activity of 0.5.
For `C[C@H](Oc1ccccc1-c1ccccc1)C1=NCCN1`, the Intrinsic activity was 0.65.
For `CC(Oc1ccccc1-c1cccnc1)C1=NCCN1` (racemic), the Intrinsic activity was 0.5.
`CC(Oc1ccccc1-c1ccccc1)C1=NCCN1` (racemic) gave an Intrinsic activity of 0.5.
With `CC(Oc1ccccc1-c1cccc(F)c1)C1=NCCN1` (racemic) the Intrinsic activity was less than 0.3.

These compounds were tested against T2, Alpha-2A adrenergic receptor (Homo sapiens, UniProt P08913) (assay: Agonistic potency at human adrenergic alpha-2A receptor expressed in CHO cells assessed as forskolin-induced cAMP accumulation). Settings: not given.
T2 sequence (P08913 whole entry): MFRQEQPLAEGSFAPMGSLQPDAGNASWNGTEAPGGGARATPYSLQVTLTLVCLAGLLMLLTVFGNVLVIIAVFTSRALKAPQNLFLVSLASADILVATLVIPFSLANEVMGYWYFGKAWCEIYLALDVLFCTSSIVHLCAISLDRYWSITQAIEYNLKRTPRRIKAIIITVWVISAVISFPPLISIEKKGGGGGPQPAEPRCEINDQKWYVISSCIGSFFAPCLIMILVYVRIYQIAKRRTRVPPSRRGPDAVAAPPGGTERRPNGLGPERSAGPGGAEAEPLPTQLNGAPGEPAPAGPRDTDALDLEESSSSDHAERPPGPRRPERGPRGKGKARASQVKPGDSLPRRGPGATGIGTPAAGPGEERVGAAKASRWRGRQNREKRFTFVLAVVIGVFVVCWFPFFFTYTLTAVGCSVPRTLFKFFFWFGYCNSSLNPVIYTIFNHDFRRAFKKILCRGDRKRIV
With `C[C@@H](Oc1ccccc1-c1ccccc1)C1=NCCN1` the EC50 was 28800 nM.
Compound `C[C@H](Oc1ccccc1-c1ccccc1)C1=NCCN1` has an EC50 of 74.1 nM.

Each compound was assayed against T3, Alpha-2C adrenergic receptor (Homo sapiens) (UniProt P18825) (assay: Intrinsic activity at human adrenergic Alpha-2C receptor expressed in CHO cells assessed as forskolin-induced cAMP accumulation relative to (-)- noradrenaline). Settings: not given.
T3 sequence (whole entry): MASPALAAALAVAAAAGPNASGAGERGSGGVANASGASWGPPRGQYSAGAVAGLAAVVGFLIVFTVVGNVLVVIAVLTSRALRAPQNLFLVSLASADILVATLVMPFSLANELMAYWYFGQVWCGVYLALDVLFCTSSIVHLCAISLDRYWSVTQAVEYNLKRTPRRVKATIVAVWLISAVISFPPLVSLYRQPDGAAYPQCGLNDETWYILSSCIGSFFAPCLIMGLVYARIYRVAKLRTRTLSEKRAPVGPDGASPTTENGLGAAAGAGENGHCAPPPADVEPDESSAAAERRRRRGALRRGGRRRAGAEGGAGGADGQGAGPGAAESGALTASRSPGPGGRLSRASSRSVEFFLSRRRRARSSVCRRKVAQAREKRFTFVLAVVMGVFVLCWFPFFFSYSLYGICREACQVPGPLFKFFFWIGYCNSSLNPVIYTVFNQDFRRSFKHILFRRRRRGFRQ
Format: functional, cell-based
`C[C@@H](Oc1ccccc1-c1cccc([N+](=O)[O-])c1)C1=NCCN1` gave an Intrinsic activity of 0.8.
Work on `C[C@@H](Oc1ccccc1-c1ccccc1)C1=NCCN1` yielded an Intrinsic activity of 0.7.
`CC(Oc1ccccc1-c1cccc([N+](=O)[O-])c1)C1=NCCN1` (racemic) showed an Intrinsic activity of 0.6.
`CC(Oc1ccccc1-c1cccc(O)c1)C1=NCCN1` (racemic) showed an Intrinsic activity of 1.15.
Work on `C[C@H](Oc1ccccc1-c1ccccc1)C1=NCCN1` yielded an Intrinsic activity of 0.9.
Work on `C[C@H](Oc1ccccc1-c1cccc([N+](=O)[O-])c1)C1=NCCN1` yielded an Intrinsic activity of 0.45.
With `CC(Oc1ccccc1-c1cccnc1)C1=NCCN1` (racemic) the Intrinsic activity was 1.
`CC(Oc1ccccc1-c1ccccc1)C1=NCCN1` (racemic) showed an Intrinsic activity of 0.8.
Work on `CC(Oc1ccccc1-c1cccc(F)c1)C1=NCCN1` (racemic) yielded an Intrinsic activity of 1.15.

The compounds below were run against T3, Alpha-2C adrenergic receptor (Homo sapiens) (assay: not given). Settings: CHO.
In the case of `C[C@@H](Oc1ccccc1-c1cccc([N+](=O)[O-])c1)C1=NCCN1`, the pKiH is reported as 8.21 and the pKiL is reported as 6.42.
With `Cc1cccc(C(C)c2c[nH]cn2)c1C` (single isomer, unassigned) [DEXMEDETOMIDINE] the pKiH was 10 and the pKiL was 8.26.

The compounds below were run against T4, Alpha-2C adrenergic receptor (Homo sapiens, UniProt P18825) (assay: Displacement of [3H]RX 821002 from human adrenergic alpha-2c receptor expressed in CHO cells in presence of GppNHp/Na). Settings: not given.
T4 sequence (P18825 whole entry): T3 sequence (whole entry)
Format: cell-based
Work on `C[C@@H](Oc1ccccc1-c1cccc([N+](=O)[O-])c1)C1=NCCN1` yielded a Ki of 363 nM.
In the case of `Cc1cccc(C(C)c2c[nH]cn2)c1C` (single isomer, unassigned) [DEXMEDETOMIDINE], the Ki is reported as 30.9 nM.

These compounds were tested against T5, Alpha-2A adrenergic receptor (Homo sapiens) (UniProt P08913) (assay: Intrinsic activity at human adrenergic alpha-2A receptor expressed in CHO cells assessed as forskolin-induced cAMP accumulation relative to (-)-noradrenaline). Settings: not given.
T5 sequence (whole entry): T2 sequence (P08913 whole entry)
Format: functional, cell-based
`C[C@@H](Oc1ccccc1-c1ccccc1)C1=NCCN1` gave an Intrinsic activity of 0.4.
`CC(Oc1ccccc1-c1cccc([N+](=O)[O-])c1)C1=NCCN1` (racemic) gave an Intrinsic activity of less than 0.3.
Work on `CC(Oc1ccccc1-c1cccc(O)c1)C1=NCCN1` (racemic) yielded an Intrinsic activity of less than 0.3.
`C[C@H](Oc1ccccc1-c1ccccc1)C1=NCCN1` was tested, and the Intrinsic activity was 0.8.
For `CC(Oc1ccccc1-c1cccnc1)C1=NCCN1` (racemic), the Intrinsic activity was 0.5.
`CC(Oc1ccccc1-c1ccccc1)C1=NCCN1` (racemic) gave an Intrinsic activity of 0.7.
`CC(Oc1ccccc1-c1cccc(F)c1)C1=NCCN1` (racemic) gave an Intrinsic activity of 0.58.

Each compound was assayed against T1, Alpha-2B adrenergic receptor (Homo sapiens) (assay: (§1) Agonistic potency at human adrenergic alpha-2B receptor expressed in CHO cells assessed as forskolin-induced cAMP accumulation). Settings: not given.
Format: functional, cell-based
In the case of `CC(Oc1ccccc1-c1cccc([N+](=O)[O-])c1)C1=NCCN1` (racemic), the Activity is reported as “inactive”.
For `CC(Oc1ccccc1-c1cccc(F)c1)C1=NCCN1` (racemic), the Activity was “inactive”.

The compounds below were run against T6, Alpha-2B adrenergic receptor (Homo sapiens, UniProt P18089) (assay: as §1). Settings: not given.
T6 sequence (P18089 whole entry): T1 sequence (whole entry)
Format: functional, cell-based
With `C[C@@H](Oc1ccccc1-c1ccccc1)C1=NCCN1` the EC50 was 100000 nM.
Compound `C[C@H](Oc1ccccc1-c1ccccc1)C1=NCCN1` has an EC50 of 692 nM.

These compounds were tested against T4, Alpha-2C adrenergic receptor (assay: biochemical). Settings: not given.
For `C[C@@H](Oc1ccccc1-c1cccc([N+](=O)[O-])c1)C1=NCCN1`, the Ki was 257 nM.
`C[C@@H](Oc1ccccc1-c1ccccc1)C1=NCCN1` showed a Ki of 977 nM.
With `C[C@H](Oc1ccccc1-c1ccccc1)C1=NCCN1` the Ki was 302 nM.
For `C[C@H](Oc1ccccc1-c1cccc([N+](=O)[O-])c1)C1=NCCN1`, the Ki was 537 nM.

What follows are compounds tested against T5, Alpha-2A adrenergic receptor (Homo sapiens) (assay: not given). Settings: CHO.
`C[C@@H](Oc1ccccc1-c1cccc([N+](=O)[O-])c1)C1=NCCN1` gave a pKb of 7.11.
In the case of `C[C@H](Oc1ccccc1-c1cccc([N+](=O)[O-])c1)C1=NCCN1`, the pKb is reported as 7.35.

What follows are compounds tested against T6, Alpha-2B adrenergic receptor (assay: Displacement of [3H]RX 821002 from human adrenergic alpha-2B receptor expressed in CHO cells). Settings: not given.
Format: cell-based
Work on `C[C@@H](Oc1ccccc1-c1cccc([N+](=O)[O-])c1)C1=NCCN1` yielded a Ki of 741 nM.
In the case of `C[C@@H](Oc1ccccc1-c1ccccc1)C1=NCCN1`, the Ki is reported as 1260 nM.
In the case of `C[C@H](Oc1ccccc1-c1ccccc1)C1=NCCN1`, the Ki is reported as 589 nM.
Compound `C[C@H](Oc1ccccc1-c1cccc([N+](=O)[O-])c1)C1=NCCN1` has a Ki of 1580 nM.

The compounds below were run against T2, Alpha-2A adrenergic receptor (assay: Displacement of [3H]RX 821002 from human adrenergic alpha2A receptor expressed in CHO cells). Settings: not given.
Format: cell-based
`C[C@@H](Oc1ccccc1-c1cccc([N+](=O)[O-])c1)C1=NCCN1` gave a Ki of 81.3 nM.
`C[C@@H](Oc1ccccc1-c1ccccc1)C1=NCCN1` showed a Ki of 186 nM.
Compound `C[C@H](Oc1ccccc1-c1ccccc1)C1=NCCN1` has a Ki of 91.2 nM.
`C[C@H](Oc1ccccc1-c1cccc([N+](=O)[O-])c1)C1=NCCN1` was tested, and the Ki was 72.4 nM.

The compounds below were run against T4, Alpha-2C adrenergic receptor (assay: Agonistic potency at human adrenergic Alpha-2C receptor expressed in CHO cells assessed as forskolin-induced cAMP accumulation). Settings: read-out: EC50.
Format: functional, cell-based
With `C[C@@H](Oc1ccccc1-c1cccc([N+](=O)[O-])c1)C1=NCCN1` the EC50 was 38 nM.

Same assay, conditions: read-out: Log EC50 (converted)
Work on `C[C@@H](Oc1ccccc1-c1cccc([N+](=O)[O-])c1)C1=NCCN1` yielded an EC50 of 10 nM.
In the case of `C[C@@H](Oc1ccccc1-c1ccccc1)C1=NCCN1`, the EC50 is reported as 112 nM.
In the case of `C[C@H](Oc1ccccc1-c1ccccc1)C1=NCCN1`, the EC50 is reported as 18.6 nM.
Compound `C[C@H](Oc1ccccc1-c1cccc([N+](=O)[O-])c1)C1=NCCN1` has an EC50 of 741 nM.

These compounds were tested against T1, Alpha-2B adrenergic receptor (Homo sapiens) (assay: Antagonistic potency at human adrenergic alpha-2B receptor expressed in CHO cells assessed as forskolin-induced cAMP accumulation). Settings: not given.
Format: functional, cell-based
`C[C@@H](Oc1ccccc1-c1cccc([N+](=O)[O-])c1)C1=NCCN1` was tested, and the pKb was 6.07.
With `C[C@H](Oc1ccccc1-c1cccc([N+](=O)[O-])c1)C1=NCCN1` the pKb was 5.93.
